# Patent publication US6855507B2, “Method of screening for pharmaceuticals by detecting cross talk between intracellular signals and intranuclear receptors” (Chugai Seiyaku Kabushiki Kaisha, priority 1998, dated 2005)
# Tested on: VDR and Smad3
# Assay: GST-pull down analysis of VDR and Smad3 interaction (cell-free)
# Type: binding
# Conditions: FIG. 5
# Protocol: GST fused Smad3 or VDR (full length peptide 1-424, partial peptides: amino acid sequence 115-424, 115-357, 115-300 and others, see FIG. 4) fused proteins (GST-Smad3 or GST-VDR) were expressed by using E.coli, and were captured on beads with glutatione-Sepharose bead (Pharmacia) to accomplish affinity purification. On the other hand, ^35S-methionine-labeled Smad3 and VDR were prepared in cell-free system by using reticulocyte lysate translation system (Promega). GST-Smad3 or GST-VDR fixed on beads described above was incubated with ^35S-methionine labeled VRD or Smad3. By using polyacrylamide gel electrophoresis, ^35S-methionine labeled VDR or Smad3 were analyzed.
structure (smiles),measurement,setting,value
"C=C1/C(=C\C=C2/CCC[C@]3(C)[C@@H]([C@H](C)CCCC(C)(C)O)CC[C@@H]23)C[C@@H](O)C[C@@H]1O [1,25(OH)2VD3]",binding of full length VDR to Smad3 in the presence of ligand,1 nM,slightly bound
same,ligand requirement of binding of VDR partial peptides 115-357 and 115-300 to Smad3,,did not require
